In the experiment the target is T1, mAChR hM4 (Homo sapiens, UniProt P08173).
T1 construct: expressed in transfected cells; host or cells: CHO-K1 (Chinese hamster ovary) cells
T1 sequence (P08173 1-479): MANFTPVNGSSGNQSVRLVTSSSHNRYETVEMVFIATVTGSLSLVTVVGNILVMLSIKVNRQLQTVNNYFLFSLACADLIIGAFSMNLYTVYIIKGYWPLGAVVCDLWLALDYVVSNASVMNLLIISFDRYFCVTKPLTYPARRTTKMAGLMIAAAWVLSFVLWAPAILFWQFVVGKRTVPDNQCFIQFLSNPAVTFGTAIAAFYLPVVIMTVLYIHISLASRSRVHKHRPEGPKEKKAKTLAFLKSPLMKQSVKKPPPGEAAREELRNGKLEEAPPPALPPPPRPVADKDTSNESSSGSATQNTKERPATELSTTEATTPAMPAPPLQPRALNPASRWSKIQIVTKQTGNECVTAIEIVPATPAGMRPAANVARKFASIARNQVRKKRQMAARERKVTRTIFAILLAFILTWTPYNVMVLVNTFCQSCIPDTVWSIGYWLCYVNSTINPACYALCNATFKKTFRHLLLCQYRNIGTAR
Nature of the experiment: mAChR M4 cell-based functional assay (calcium flux, potentiation of EC20 acetylcholine response). The note with it: mAChR hM4 cell-line; for Emax at 30 µM: % ACh maximum at 30 μM; for pEC50: >10,000 estimated for low potency compounds lacking a plateau. An excerpt: In one aspect, the disclosed compounds potentiate the agonist response (e.g., acetylcholine) of mAChR M4. In a further aspect, the disclosed compounds increase mAChR M4 response to non-maximal concentrations of agonist in the presence of compound compared to the response to agonist in the absence of compound. […] For example, activation of mAChR M4 activity can be determined by measurement of calcium flux in response to agonist, e.g. acetylcholine, in cells loaded with a Ca^2+-sensitive fluorescent dye (e.g., Fluo-4). In a further aspect, the calcium flux was measured as an increase in fluorescent static ratio. In a yet further aspect, positive allosteric modulator activity was analyzed as a concentration-dependent increase in the EC20 acetylcholine response (i.e. the response of mAChR M4 at a concentration of acetylcholine that yields 20% of the maximal response).
In one aspect, the disclosed compounds activate mAChR M4 response as an increase in calcium fluorescence in mAChR M4-transfected CHO-K1 cells in the presence of the compound, compared to the response of equivalent CHO-K1 cells in the absence of the compound. […] In a further aspect, the mAChR M4-transfected CHO-K1 cells are transfected with human mAChR M4. In a still further aspect, the mAChR M4-transfected CHO-K1 cells are transfected with rat mAChR M4.
Substituted 3-aminothieno[2,3-c]pyridine-2-carboxamide analogs were synthesized as described above. Activity (EC50 and Emax) was determined in the mAChR M4 cell-based functional assay as described above, and the data are shown in Table II for assays conducted using mAChR hM4 cell-line. The compound number corresponds to the compound numbers used in Table I.

For 32 compounds, Emax and EC50 results are on record in patent US20160200733A1, “SUBSTITUTED THIENO[2,3-B]PYRIDINE-2-CARBOXAMIDE ANALOGS AS POSITIVE ALLOSTERIC MODULATORS OF THE MUSCARINIC ACETYLCHOLINE RECEPTOR M4” (Vanderbilt University, priority 2013, published 2016).

The structures appear in SMILES notation. pEC50: −log10 of the molar value.

Regarding `Cc1cc(C)c2c(Br)c(C(=O)NC3CC3)sc2n1` [Compound 4, 3-bromo-N-cyclopropyl-4,6-dimethylthieno[2,3-b]pyridine-2-carboxamide], the Emax (as a rule, the maximal effect, on the per cent scale that the assay sets) at 30 µM is 49% and the pEC50 (usually the negative decadic logarithm of the EC50, by convention in mol/L) is 5.32.

`Cc1cc(C)c2c(Br)c(C(=O)N3Cc4ccccc4C3)sc2n1` [Compound 5, (3-bromo-4,6-dimethylthieno[2,3-b]pyridin-2-yl)(isoindolin-2-yl)methanone]: the pEC50 was below 5.00.

For the compound `Cc1cc(C)c2c(Br)c(C(=O)NC3CCC3)sc2n1` [Compound 6, 3-bromo-N-cyclobutyl-4,6-dimethylthieno[2,3-b]pyridine-2-carboxamide], the Emax at 30 µM came to 41% and the pEC50 is below 5.00.

Regarding `Cc1cc(C)c2c(Br)c(C(=O)NC3CCOC3)sc2n1` (stereo not shown) [Compound 7, 3-bromo-4,6-dimethyl-N-(tetrahydrofuran-3-yl)thieno[2,3-b]pyridine-2-carboxamide], the pEC50 was below 5.00.

With `Cc1cc(C)c2c(Br)c(C(=O)NC3(C)COC3)sc2n1` [Compound 8, 3-bromo-4,6-dimethyl-N-(3-methyloxetan-3-yl)thieno[2,3-b]pyridine-2-carboxamide], the Emax at 30 µM was found to be 59% and the pEC50 is 5.43.

Consider `Cc1cc(C)c2c(Br)c(C(=O)NCc3cccnc3)sc2n1` [Compound 9, 3-bromo-4,6-dimethyl-N-(pyridin-3-ylmethyl)thieno[2,3-b]pyridine-2-carboxamide], for which the Emax at 30 µM was determined as 33% and the pEC50 is 5.52.

`COc1ccc(CNC(=O)c2sc3nc(C)cc(C)c3c2Br)cc1` [Compound 10, 3-bromo-N-(4-methoxybenzyl)-4,6-dimethylthieno[2,3-b]pyridine-2-carboxamide]: the pEC50 is below 5.00.

As to `Cc1cc(C)c2c(Br)c(C(=O)NCC(C)C)sc2n1` [Compound 11, 3-bromo-N-isobutyl-4,6-dimethylthieno[2,3-b]pyridine-2-carboxamide], the pEC50 is below 5.00.

In the case of `Cc1cc(C)c2c(Br)c(C(=O)NC3CCOCC3)sc2n1` [Compound 12, 3-bromo-4,6-dimethyl-N-(tetrahydro-2H-pyran-4-yl)thieno[2,3-b]pyridine-2-carboxamide], the pEC50 is below 5.00.

With `Cc1cc(C)c2c(Br)c(C(=O)NCC3CC3)sc2n1` [Compound 13, 3-bromo-N-(cyclopropylmethyl)-4,6-dimethylthieno[2,3-b]pyridine-2-carboxamide], the Emax at 30 µM was found to be 29% and the pEC50 is below 5.00.

Take `Cc1cc(C)c2c(Br)c(C(=O)N3CCOCC3)sc2n1` [Compound 14, (3-bromo-4,6-dimethylthieno[2,3-b]pyridin-2-yl)(morpholino)methanone]: the pEC50 was below 5.00.

Regarding `COc1ccc(CNC(=O)c2cc3c(C)cc(C)nc3s2)cc1` [Compound 15, N-(4-methoxybenzyl)-4,6-dimethylthieno[2,3-b]pyridine-2-carboxamide], the Emax at 30 µM is 55% and the pEC50 was 5.40.

As to `COc1ccc(CNC(=O)c2sc3nc(C)cc(C)c3c2I)cc1` [Compound 16, 3-iodo-N-(4-methoxybenzyl)-4,6-dimethylthieno[2,3-b]pyridine-2-carboxamide], the Emax at 30 µM came out at 51% and the pEC50 is 5.59.

Take `COc1ccc(CNC(=O)c2sc3nc(C)cc(C)c3c2C)cc1` [Compound 17, N-(4-methoxybenzyl)-3,4,6-trimethylthieno[2,3-b]pyridine-2-carboxamide]: the Emax at 30 µM came out at 53% and the pEC50 was 5.62.

`Cc1cc(C)c2c(C)c(C(=O)NC3CC3)sc2n1` [Compound 18, N-cyclopropyl-3,4,6-trimethylthieno[2,3-b]pyridine-2-carboxamide]: the Emax at 30 µM amounted to 73% and the pEC50 was below 5.00.

As for `Cc1cc(C)c2c(C)c(C(=O)NCc3ccc(S(C)(=O)=O)cc3)sc2n1` [Compound 19, 3,4,6-trimethyl-N-(4-(methylsulfonyl)benzyl)thieno[2,3-b]pyridine-2-carboxamide], the maximal response (Emax) at 30 µM worked out at 62% and the pEC50 is 5.38.

Turning to `Cc1cc(C)c2c(C)c(C(=O)NCc3ccc4c(c3)CCO4)sc2n1` [Compound 20, N-((2,3-dihydrobenzofuran-5-yl)methyl)-3,4,6-trimethylthieno[2,3-b]pyridine-2-carboxamide], the Emax at 30 µM was 38% and the pEC50 is 5.59.

For the compound `Cc1cc(C)c2c(C)c(C(=O)NCc3ccc(OC(F)(F)F)cc3)sc2n1` [Compound 21, 3,4,6-trimethyl-N-(4-(trifluoro-methoxy)benzyl)thieno[2,3-b]pyridine-2-carboxamide], the pEC50 is below 5.00.

On to `Cc1cc(C)c2c(C)c(C(=O)NC3CCOC3)sc2n1` (stereo not shown) [Compound 22, 3,4,6-trimethyl-N-(tetrahydrofuran-3-yl)thieno[2,3-b]pyridine-2-carboxamide], for which the Emax at 30 µM was 67% and the pEC50 is below 5.00.

For `Cc1cc(C)c2c(C)c(C(=O)N3CCCC(F)(F)C3)sc2n1` [Compound 23, (3,3-difluoropiperidin-1-yl)(3,4,6-trimethylthieno[2,3-b]pyridin-2-yl)methanone], the pEC50 was below 5.00.

For the compound `Cc1cc(C)c2c(C)c(C(=O)N3CCCC3)sc2n1` [Compound 24, pyrrolidin-1-yl(3,4,6-trimethylthieno[2,3-b]pyridin-2-yl)methanone], the pEC50 is below 5.00.

With `Cc1cc(C)c2c(C)c(C(=O)N[C@@H]3CCOC3)sc2n1` [Compound 25, (R)-3,4,6-trimethyl-N-(tetrahydrofuran-3-yl)thieno[2,3-b]pyridine-2-carboxamide], the Emax at 30 µM was found to be 60% and the pEC50 was below 5.00.

For `Cc1cc(C)c2c(C)c(C(=O)NC3CCOCC3)sc2n1` [Compound 26, 3,4,6-trimethyl-N-(tetrahydro-2H-pyran-4-yl)thieno[2,3-b]pyridine-2-carboxamide], the Emax at 30 µM turned out to be 44% and the pEC50 is below 5.00.

On to `CSc1ccc(CNC(=O)c2sc3nc(C)cc(C)c3c2C)cc1` [Compound 27, 3,4,6-trimethyl-N-(4-(methylthio)benzyl)thieno[2,3-b]pyridine-2-carboxamide], for which the Emax at 30 µM is 49% and the pEC50 is 5.66.

Consider `COc1ccc2c(c1)CCN(C(=O)c1sc3nc(C)cc(C)c3c1C)C2` [Compound 28, (6-methoxy-3,4-dihydroisoquinolin-2(1H)-yl)(3,4,6-trimethylthieno[2,3-b]pyridin-2-yl)methanone], for which the pEC50 was below 5.00.

In the case of `COc1ccc(C(C)NC(=O)c2sc3nc(C)cc(C)c3c2C)cc1` (stereo not shown) [Compound 29, N-(1-(4-methoxyphenyl)ethyl)-3,4,6-trimethylthieno[2,3-b]pyridine-2-carboxamide], the pEC50 was below 5.00.

Consider `Cc1cc(C)c2c(C)c(C(=O)NCCN3CCOCC3)sc2n1` [Compound 30, 3,4,6-trimethyl-N-(2-morpholinoethyl)thieno[2,3-b]pyridine-2-carboxamide], for which the pEC50 is below 5.00.

As for `Cc1cc(C)c2c(C)c(C(=O)NCc3ccc4c(c3)OCCO4)sc2n1` [Compound 31, N-((2,3-dihydrobenzo[b][1,4]dioxin-6-yl)methyl)-3,4,6-trimethylthieno[2,3-b]pyridine-2-carboxamide], the Emax at 30 µM was 57% and the pEC50 is 5.66.

As for `Cc1cc(C)c2c(Br)c(C(=O)NCc3ccc(S(C)(=O)=O)cc3)sc2n1` [Compound 32, 3-bromo-4,6-dimethyl-N-(4-(methylsulfonyl)benzyl)thieno[2,3-b]pyridine-2-carboxamide], the pEC50 is below 5.00.

With `Cc1cc(C)c2c(C#N)c(C(=O)NCc3ccc(S(C)(=O)=O)cc3)sc2n1` [Compound 33, 3-cyano-4,6-dimethyl-N-(4-(methylsulfonyl)benzyl)thieno[2,3-b]pyridine-2-carboxamide], the pEC50 is below 5.00.

As to `Cc1cc(C)c2c(-c3ccccc3)c(C(=O)NCc3ccc(S(C)(=O)=O)cc3)sc2n1` [Compound 34, 4,6-dimethyl-N-(4-(methylsulfonyl)benzyl)-3-phenylthieno[2,3-b]pyridine-2-carboxamide], the pEC50 was below 5.00.

In the case of `Cc1cc(C)c2cc(C(=O)NCc3ccc(S(C)(=O)=O)cc3)sc2n1` [Compound 35, 4,6-dimethyl-N-(4-(methylsulfonyl)benzyl)thieno[2,3-b]pyridine-2-carboxamide], the Emax at 30 µM was determined as 41% and the pEC50 is below 5.00.
